We go through three molecules from US10570179B2, “Substituted urea depsipeptide analogs as activators of the CLPP endopeptidase” (priority 2016, dated 2020).

Test [1] concerns the target T1, S. aureus ClpP (Sa-ClpP) (Staphylococcus aureus, UniProt Q2G036).
T1 construct: made in house; host or cells: E. coli BL21 (DE3)
In words: Casein-BODIPY digestion assay (ClpP activation). Format: biochemical. The protocol: The compounds were assayed in a casein digestion assay in order to determine their effect on ClpP activation. Briefly, the assay was carried out using S. aureus ClpP (“Sa-ClpP”) overexpressed in E. coli BL21 (DE3) and purified in a two-step process. Purity of the protein was assessed through SDS PAGE analysis. EC50 evaluations were conducted in triplicate in a 20 μl assay format using a method adapted from Maurizi et al. (Methods Enzymol. (1994) 244:314-331). Each well contained 10 μM saClpP, 25 μg/ml BODIPY FL casein (Invitrogen Corporation, San Diego, Calif.), and test compound in concentrations ranging between 0-1000 μM in assay buffer (50 mM Tris pH 8, 200 mM KCl, and 1 mM TCEP). The reaction took place at 37° C. Fluorescence (excitation 485 nm; emission 528 nm) was measured in five minute intervals over a 45 min period using a BioTek HT fluorescence microplate reader (BioTek Instruments, Inc., Winooski, Vt.). Velocity of each reaction was calculated and data was fit to a dose response curve using GraphPad Prism® software (GraphPad Software, Inc., La Jolla, Calif.). EC50 is the effective concentration of compound which causes 50% activation of S. aureus ClpP in the foregoing BODIPY FL casein assay.
Alternatively, the assay was carried out using EnzCheck Protease Assay (Molecular Probes, Catalog # E6638). The assay was performed in black 384 well, flat bottom, low volume plates (Greiner Bio-One, Monroe, N.C., catalog #784076). 10 μL of Tris.HCl buffer, pH 8.0 with 0.01% Triton X-100 was pipetted into each well using a Well-Mate (Thermo Scientific, Waltham, Mass.). 0.4 μL test compounds or controls (2% DMSO v/v) were added to each well using a Biomek FX liquid handling robot (Beckman Coulter, Indianapolis, Ind.). After addition of test compounds and controls, 10 μL of master mix containing 2 μM Sa-ClpP and 2 μM substrate (Bodipy-FL labeled casein) in Tris.HCl buffer, pH 8.0 with 0.01% (v/v) Triton X-100, was pipetted into each well. All assays were performed in triplicate, under linear velocity conditions. Increase in fluorescent signal following activation of Sa-ClpP by test compounds and controls was measured over time period of 30 mins using filters with excitation at 485±15 nm and emission at 520±25 nm on a PHERAstar FS Multilabel reader (BMG, Cary, N.C.). Instrument gains and enzyme linear velocity conditions were determined and validated using ADEP4, a known Sa-ClpP activator. Data analysis was done by measuring rate of casein degradation over time (slopes). Computed degradation rates (slopes) were normalized to positive (ADEP4) or negative (DMSO) controls. Using nonlinear regression curve fitting EC50 values and % activation were determined using the equation “log [agonist] vs. Response-variable slope (four parameters)-symmetrical” in the program Prism 6 (GraphPad Software, La Jolla, Calif. USA, www.graphpad.com).

Test [2] concerns S. aureus ΔClpP. Description: Minimal inhibitory concentration, microbroth dilution. Format: cell-based, Staphylococcus aureus. As to conditions: MIC; ClpP inactivated. The protocol: (§1) Minimal inhibitory concentrations (“MICs”) were determined using the microbroth dilution method according to Clinical Laboratory Standards Institute (CLSI; National, C.F. C. L. S., Methods for Dilution Antimicrobial Susceptibility Tests for Bacteria Grow aerobically-Seventh Edition: Approved Standard M7-A7, CLSI, Wayne, Pa., USA, 2008) and were read by visual inspection. Two fold serial dilutions of test compound in 100 μL of the appropriate broth media were first prepared in 96-well round bottom microtiter plates (Nalgene Nunc International, Rochester, N.Y., USA). An equivalent volume (100 μL) of bacterial broth inocula containing approximately 10^5 bacterial cfu/mL was added to each well to give final concentrations of test compound starting at 200 μM. The plates were then incubated aerobically at 37° C. All strains were incubated overnight. After incubations, in all cases the MIC was recorded as the lowest concentration of drug that prevented bacterial growth. The bacterial strains for which MIC was determined as described in Table 4.
A general note: In broth dilution the organism is exposed to a series of concentrations in liquid medium.

Test [3] concerns E. faecails. Described as above. It is filed as cell-based. As to conditions: Enterococcus faecalis, read-out: Minimal Inhibitory Concentrations (μM) E. faecails, MIC. The procedure:
as §1

In test [4] the test system is MRSA NRS70. The description is as above. Format: cell-based. The following applies: Staphylococcus aureus, read-out: Minimal Inhibitory Concentrations (μM) MRSA NRS70, MIC. The procedure: as §1
The subject of test [5] is S. aureus ATCC 29213. The test is described as above. The following applies: Staphylococcus aureus, ATCC29213, read-out: Minimal Inhibitory Concentrations (μM) S. aureus ATCC 29213, MIC. It is filed as cell-based. The protocol:
as §1

The test system of test [6] is S. aureus USA 300. The test is described as above. It is filed as cell-based. As to conditions: Staphylococcus aureus, USA300, read-out: Minimal Inhibitory Concentrations (μM) S. aureus USA 300, MIC. The protocol: as §1

Structures are written as SMILES. In brackets after ≈: the same amount, converted by molar mass. Numbered stars: 1 amine (or outer) side, 2 acyl side, 3 side chain; on linkers, the order of the positions; unused ones are H or OH. Bridge positions count the residues as written; N and C are the ends. Square brackets hold non-standard residues; d marks the D form. Peptide text beside a SMILES is read from it. * marks the point of attachment. Morpholine(3S-CO) = O=C(O)[C@@H]1COCCN1; Phe(3-Me) = Cc1cccc(C[C@H](N)C(=O)O)c1; Pro(4R-Me) = C[C@H]1CN[C@H](C(=O)O)C1; Hyp = O=C(O)[C@@H]1C[C@@H](O)CN1; NH(3-Cl-phenyl) = Clc1cccc(N*)c1; NH(4-Cl-phenyl) = Clc1ccc(N*)cc1; aThr = C[C@H](O)[C@H](N)C(=O)O; Pip = O=C(O)[C@@H]1CCCCN1; CO = O=C([*:1])[*:2]

Usually EC50 stands for the concentration at which the effect is half-maximal.

T1 sequence (Q2G036 whole entry): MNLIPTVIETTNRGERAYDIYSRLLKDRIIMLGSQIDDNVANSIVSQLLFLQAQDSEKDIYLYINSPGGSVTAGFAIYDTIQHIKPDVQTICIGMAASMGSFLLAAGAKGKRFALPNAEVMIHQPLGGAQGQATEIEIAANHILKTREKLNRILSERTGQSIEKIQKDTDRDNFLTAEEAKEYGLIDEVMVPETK

In test [1], `Cc1cccc(C[C@H](NC(=O)Nc2cccc(Cl)c2)C(=O)N[C@@H]2C(=O)N3C[C@H](O)C[C@H]3C(=O)N3CCOC[C@H]3C(=O)N[C@@H](C)C(=O)N3C[C@H](C)C[C@H]3C(=O)O[C@H]2C)c1` [Compound 74, (S)-2-(3-(3-CHLOROPHENYL)UREIDO)-N-((6AS,8R,12S,13S,15AS,17R,21S,23AS)-8-HYDROXY-13,17,21-TRIMETHYL-6,11,15,20,23-PENTAOXOOCTADECAHYDRO-6H,11H,15H-[1,4]OXAZINO[3,4-I]DIPYRROLO[2,1-C:2′,1′-L][1]OXA[4,7,10,13]TETRAAZACYCLOHEXADECIN-12-YL)-3-(M-TOLYL)PROPANAMIDE] ({NH(3-Cl-phenyl)-CO}-[Phe(3-Me)][aThr][Hyp][Morpholine(3S-CO)]A[Pro(4R-Me)]; ester 2-C) gave an EC50 of 0.25 ± 0.1 µM. For the same molecule, the “Minimal Inhibitory Concentrations (μM) S. aureus ΔClpP” value in test [2] is >20 µM. Further, the MIC in test [3] was > 20 µM; in test [4], 5 µM (≈ 4.12 µg/mL); in test [5], 5 µM (≈ 4.12 µg/mL); in test [6], 1.25 µM (≈ 1.03 µg/mL).
`Cc1cccc(C[C@H](NC(=O)Nc2ccc(Cl)cc2)C(=O)N[C@@H]2C(=O)N3CCC[C@H]3C(=O)N3CCCC[C@H]3C(=O)N[C@@H](C)C(=O)N3C[C@H](C)C[C@H]3C(=O)O[C@H]2C)c1` [Compound 63, (S)-2-(3-(4-CHLOROPHENYL)UREIDO)-3-(M-TOLYL)-N-((2R,6S,8AS,14AS,20S,21S,23AS)-2,6,21-TRIMETHYL-5,8,14,19,23-PENTAOXOOCTADECAHYDRO-1H,5H,14H,19H-PYRIDO[2,1-I]DIPYRROLO[2,1-C:2′,1′-L][1]OXA[4,7,10,13]TETRAAZACYCLOHEXADECIN-20-YL)PROPANAMIDE] ({NH(4-Cl-phenyl)-CO}-[Phe(3-Me)][aThr]P[Pip]A[Pro(4R-Me)]; ester 2-C) yielded an EC50 in test [1] of 0.4 ± 0.2 µM. Moreover, in test [2], the “Minimal Inhibitory Concentrations (μM) S. aureus ΔClpP” value is >20 µM. For the same molecule, the MIC worked out at 0.313 µM (≈ 0.252 µg/mL) in test [3], 0.313 µM (≈ 0.252 µg/mL) in test [4], 0.625 µM (≈ 0.504 µg/mL) in test [5] and 0.313 µM (≈ 0.252 µg/mL) in test [6].
Regarding `Cc1cccc(C[C@H](NC(=O)Nc2ccc(Cl)cc2)C(=O)N[C@H]2COC(=O)[C@@H]3C[C@H](C)CN3C(=O)[C@H](C)NC(=O)[C@@H]3CCCCN3C(=O)[C@@H]3CCCN3C2=O)c1` [Compound 53, (S)-2-(3-(4-CHLOROPHENYL)UREIDO)-N-((2S,6S,8AS,14AS,20S,23AS)-2,6-DIMETHYL-5,8,14,19,23-PENTAOXOOCTADECAHYDRO-1H,5H,14H,19H-PYRIDO[2,1-I]DIPYRROLO[2,1-C:2′,1′-L][1]OXA[4,7,10,13]TETRAAZACYCLOHEXADECIN-20-YL)-3-(M-TOLYL)PROPANAMIDE], the response in test [1] was half-maximal at 0.67 ± 0.3 µM (EC50). In test [2], the “Minimal Inhibitory Concentrations (μM) S. aureus ΔClpP” value was >20 µM. In addition, the MIC in test [3] came to 5 µM (≈ 3.96 µg/mL); in test [4], 1.25 µM (≈ 0.99 µg/mL); in test [5], 1.25 µM (≈ 0.99 µg/mL); in test [6], 2.5 µM (≈ 1.98 µg/mL).
